# Laboratory results as given in US20260132128A1, “COMPOUND FOR RECOVERING P53 MUTATION FUNCTION AND USE THEREOF” (SHENZHEN ZHONGGE BIOLOGICAL TECHNOLOGY CO., LTD., priority 2022, published 2026).
# Marks after values point to notes of the source that are not given here.
# Key:
# p53 Y220C [1] = target: T1, p53 Y220C (Homo sapiens, UniProt P04637, P309S/R273H/Y220C); experiment: DNA binding test (HTRF): binding of P53Y220C protein to DNA; assay type: biochemical; conditions: HTRF, activation of p53 Y220C (aa 94-312) binding to biotin DNA
# T1 construct: a truncated mutant containing only amino acids 94-312 of p53; made in house; host or cells: E. coli
# Protocol: (§1) In order to detect the ability of the aforementioned compounds to increase the binding of P53Y220C protein to DNA, the binding activity of p53 Y220C was measured by homogeneous time-resolved fluorescence (HTRF). Recombinant His-tagged p53 Y220C for HTRF measurement was expressed in bacteria E. coli. The recombinant protein was a truncated mutant containing only amino acids 94-312 of p53, and its sequence was […] […] VEGNLR […] TFRh[…] […]. The sense strand of the DNA double strand was 5′-[…]-3′, with a biotin tag at the 5′ end for activity assay, and the antisense strand was 5′-[…]-3′ 40 mL of assay buffer (20 mM Tris HCL, pH 7.5, 50 mM NaCl, 2 mM MgCl2, 0.02% Tween 20, 0.01% BSA, 1 mM DTT) was prepared. 10 mM compound was prepared and subjected to 3-fold dilution to obtain 10 dose gradient dilutions of the compound. 20 nL of the compound was added to a 384-well assay plate (PerkinElmer 6007299) using an Echo 655 Liquid Handler. P53Y220C protein was dissolved in assay buffer to reach a final concentration of 150 nM, and 5 μL thereof was added to each well, and incubated at room temperature for 5 min. DNA was dissolved in assay buffer to reach a final concentration of 150 nM, and 5 μL thereof was added to each well, and incubated at room temperature for 15 min. Anti 6HIS-XL665 (Cisbio 61HISXLB) was dissolved in assay buffer to reach a final concentration of 20 nM, and 5 μL thereof was added to each well. Streptavidin-Eu cryptate (Cisbio 610SAKLA) was dissolved in assay buffer to reach a final concentration of 0.625 nM, and 5 μL thereof was added to each well, and incubated at 27° C. for 1 hour. The plate was then read for signal values on an Envision (PerkinElmer 2105-0020) plate reader at 665 nm and 615 nm, respectively. […] Activation rate={(A-C)/(C)}*100%, A=(signal value at 665 nm/signal value at 615 nm); C=average signal of negative control (wherein, negative control referred to 0.1% DMSO).
# p53 Y220C [2] = target: T2, p53 Y220C (Homo sapiens, UniProt P04637, Y220C); experiment: as above; assay type: biochemical; conditions: multiple ratio of EC50 of the compound to the reference compound, DNA binding test
# T2 construct: a truncated mutant containing only amino acids 94-312 of p53; made in house; host or cells: E. coli
# Protocol: as §1
# NUGC-3 cells = experiment: NUGC-3 cell proliferation assay (CTG); assay type: cell-based, human; conditions: for Compound GI50 (nM)/Reference compound GI50 (nM): multiple ratio of GI50 of the compound to the reference compound; for GI50: 6 days, CTG
# Protocol: In order to detect the inhibitory effect of the aforementioned compounds on the proliferation ability of NUGC-3 cells, 250 NUGC-3 cells (Nanjing Cobioer Biosciences Co., Ltd., CBP60492) were seeded into a 384-well plate (Corning 3765), 35 μL per well, and incubated overnight in a constant temperature incubator at 37° C. and 5% CO2. Then, 40 nL of the compound was added to the 384-well plate using an Echo 655 Liquid Handler, with a maximum final concentration of 10 μM, 1:3 serial dilutions, and a total of 10 doses. The culture was performed at 37° C. and 5% CO2 for 6 days. The plate was taken out from the incubator and equilibrated at room temperature for 10 minutes. 20 μL of CTG (Promage G7572) was added to each well of the plate according to the platemap. The plate was centrifuged at 1000 rpm for 1 min. The lysis of cells was induced by mixing on a shaker for 2 min. The plate was centrifuged at 1000 rpm for 1 min. Incubation was performed at room temperature for 10 min to stabilize luminescence signals. Luminescence values were recorded by Envision (PerkinElmer 2105-0020). GraphPad 9.0 was used to fit the inhibition rate and compound concentration into a nonlinear regression curve (dose response-variable slope) to calculate GI50, inhibition rate={1−(A−B)/(C−B)}*100%, A=signal value of compound; B=average signal of blank control; C=average signal of negative control (wherein negative control was 0.1% DMSO).
EC50 (p53 Y220C [1]) [nM],SMILES,Compound EC50 (nM)/Reference compound EC50 (nM) (p53 Y220C [2]),Compound GI50 (nM)/Reference compound GI50 (nM) (NUGC-3 cells),"GI50 (NUGC-3 cells; Homo sapiens, NUGC-3, 144 h) [nM]",GI50 (NUGC-3 cells) [nM]
< 100,CNC(=O)c1cc(OC)c(NCC#Cc2nc3c(N[C@H]4CC[C@H](N5CC6(COC6)C5)CC4)cccn3c2CC(F)(F)F)cc1F [Compound 27],B (B: EC50 of the reference compound<EC50 of the compound≤3.0*EC50 of the reference compound),C (C: GI50 of the compound ≥ 3 * GI50 of the reference compound),–,–
100 to 500,COc1cc(-c2nccs2)ccc1NCC#Cc1nc2c(NC3CCN(C)CC3)cccn2c1CC(F)(F)F [Compound 16],C (C: EC50 of the compound≥3*EC50 of the reference compound),C (C: GI50 of the compound ≥ 3 * GI50 of the reference compound),≥ 5000,–
100 to 500,COCCNC(=O)c1ccc(NCC#Cc2nc3c(NC4CCN(C)CC4)cccn3c2CC(F)(F)F)c(OC)c1 [Compound 30],C (C: EC50 of the compound≥3*EC50 of the reference compound),C (C: GI50 of the compound ≥ 3 * GI50 of the reference compound),1000 to 5000,–
100 to 500,COc1cc(C#N)ccc1NCC#Cc1nc2c(NC3CCN(C)CC3)cccn2c1CC(F)(F)F [Compound 11],B (B: EC50 of the reference compound<EC50 of the compound≤3.0*EC50 of the reference compound),C (C: GI50 of the compound ≥ 3 * GI50 of the reference compound),–,–
100 to 500,CN1CCC(Nc2cccn3c(CC(F)(F)F)c(-c4ncc(CNC(=O)c5ccn(C(C)(C)C)c5)s4)nc23)CC1 [Compound 24],C (C: EC50 of the compound≥3*EC50 of the reference compound),C (C: GI50 of the compound ≥ 3 * GI50 of the reference compound),1000 to 5000,–
100 to 500,COc1cc(S(N)(=O)=O)ccc1NCC#Cc1nc2c(NC3CCN(C)CC3)cccn2c1CC(F)(F)F [Compound 12],B (B: EC50 of the reference compound<EC50 of the compound≤3.0*EC50 of the reference compound),C (C: GI50 of the compound ≥ 3 * GI50 of the reference compound),≥ 5000,–
500 to 1000,Cc1cc[nH]c1C(=O)NCC#Cc1nc2c(NC3CCN(C)CC3)cccn2c1CC(F)(F)F [Compound 28],C (C: EC50 of the compound≥3*EC50 of the reference compound),C (C: GI50 of the compound ≥ 3 * GI50 of the reference compound),–,–
100 to 500,CNC(=O)c1ccc(NCC#Cc2nc3c(N[C@@H]4CCN(CCOC)C[C@@H]4F)cccn3c2CC(F)(F)F)c(OC)c1 [Compound 21],C (C: EC50 of the compound≥3*EC50 of the reference compound),C (C: GI50 of the compound ≥ 3 * GI50 of the reference compound),1000 to 5000,–
< 100,"CNC(=O)c1ccc(NCC#Cc2nc3c(NC4CCC(N5CC6(COC6)C5)CC4F)cccn3c2CC(F)(F)F)c(OC)c1 (single isomer, unassigned) [Compound 35-6f]",B (B: EC50 of the reference compound<EC50 of the compound≤3.0*EC50 of the reference compound),C (C: GI50 of the compound ≥ 3 * GI50 of the reference compound),–,1000 to 5000
500 to 1000,CNC(=O)c1ccc(NCC#Cc2nc3c(NC4CCN(C(C)C)CC4F)cccn3c2CC(F)(F)F)c(OC)c1 (centres unmarked) [Compound 20],C (C: EC50 of the compound≥3*EC50 of the reference compound),C (C: GI50 of the compound ≥ 3 * GI50 of the reference compound),1000 to 5000,–
100 to 500,CNC(=O)c1ccc(NCC#Cc2nc3c(NC4CCN(C)CC4)cccn3c2CC(F)(F)F)c(F)c1 [Compound 13],B (B: EC50 of the reference compound<EC50 of the compound≤3.0*EC50 of the reference compound),C (C: GI50 of the compound ≥ 3 * GI50 of the reference compound),1000 to 5000,–
100 to 500,CNC(=O)c1ccc(NCC#Cc2nc3c(NC4CCC(C)(O)CC4)cccn3c2CC(F)(F)F)c(OC)c1 (centres unmarked) [Compound 25],C (C: EC50 of the compound≥3*EC50 of the reference compound),C (C: GI50 of the compound ≥ 3 * GI50 of the reference compound),≥ 5000,–
< 100,COCCNC(=O)c1ccc(NCC#Cc2nc3c(N[C@@H]4CC[C@@H](N5CC6(COC6)C5)C[C@@H]4F)cccn3c2CC(F)(F)F)c(OC)c1 [Compound 52],A (A: EC50 of the compound≤EC50 of the reference compound),C (C: GI50 of the compound ≥ 3 * GI50 of the reference compound),–,–
< 100,"COc1cc(S(=N)(=O)C2CC2)ccc1NCC#Cc1cc2c(NC3CCN(C)CC3F)cccc2n1CC(F)(F)F (single isomer, unassigned) [Compound 39c]",B (B: EC50 of the reference compound<EC50 of the compound≤3.0*EC50 of the reference compound),A (A: GI50 of the compound ≤ GI50 of the reference compound),–,–
100 to 500,COc1cc(S(C)(=N)=O)ccc1NCC#Cc1nc2c(NC3CCN(C)CC3)cccn2c1CC(F)(F)F (centres unmarked) [Compound 15],C (C: EC50 of the compound≥3*EC50 of the reference compound),C (C: GI50 of the compound ≥ 3 * GI50 of the reference compound),< 1000,–
100 to 500,CN1CCC(Nc2cccn3c(CC(F)(F)F)c(-c4nnc(CNC(=O)c5ccn(C(C)(C)C)c5)s4)nc23)CC1 [Compound 19],B (B: EC50 of the reference compound<EC50 of the compound≤3.0*EC50 of the reference compound),C (C: GI50 of the compound ≥ 3 * GI50 of the reference compound),≥ 5000,–
100 to 500,"CNC(=O)c1ccc(NCC#Cc2nc3c(NC4CCC(N5CC6(COC6)C5)CC4F)cccn3c2CC(F)(F)F)c(OC)c1 (single isomer, unassigned) [Compound 35-6g]",C (C: EC50 of the compound≥3*EC50 of the reference compound),C (C: GI50 of the compound ≥ 3 * GI50 of the reference compound),–,≥ 5000
< 100,"[2H]C([2H])([2H])NC(=O)c1ccc(NCC#Cc2cc3c(NC4CCC(N5CCOCC5)CC4F)cccn3c2CC(F)(F)F)c(OC([2H])([2H])[2H])c1 (single isomer, unassigned) [Compound 73d]",B (B: EC50 of the reference compound<EC50 of the compound≤3.0*EC50 of the reference compound),A (A: GI50 of the compound ≤ GI50 of the reference compound),< 1000,–
< 100,[2H]C([2H])([2H])NC(=O)c1ccc(NCC#Cc2cc3c(NC4CCC(N5CC6(COC6)C5)CC4F)cccn3c2CC(F)(F)F)c(OC2CC2)c1 (centres unmarked) [Compound 76d],A (A: EC50 of the compound≤EC50 of the reference compound),A (A: GI50 of the compound ≤ GI50 of the reference compound),< 1000,–
